Literature values in US12708634B2, “Psilocybin derived compositions and methods using same” (1242753 Ontario Inc., priority 2021, dated 2026).

What was measured:
[1] = tested on: patients with treatment-resistant major depression; conditions: two oral doses (10 mg followed by 25 mg a week later)
[2] = tested on: patients with advanced-stage cancer; conditions: oral dose 0.2 mg/kg

Q: For `CN(C)CCc1c[nH]c2cccc(OP(=O)(O)O)c12` [psilocybin], which adverse events [1] is on record?
A: no clinically significant adverse events

Q: What about the adverse events [2] of the same compound?
A: no clinically significant adverse events
